According to ChEMBL document CHEMBL1122997, “Conjugates of catecholamines. 5. Synthesis and beta-adrenergic activity of N-(aminoalkyl)norepinephrine derivatives” (J Med Chem, 1985):

Molecular target: Beta-adrenergic receptor (Mus musculus, UniProt P34971+P18762+P25962)
Test: Effective concentration against 125I]iodocyanopindolol(ICYP) binding to beta adrenergic receptor was determined
Type: protein assay

SMILES	EC50 [µM]
NCCCNCC(O)c1ccc(O)c(O)c1 (configuration not stated)	160
CC(CCCCNC(=O)OCc1ccccc1)NCC(O)c1ccc(O)c(O)c1 (configuration not stated)	0.049
